Read-outs that look alike come from different tables or passages of the source.
What was measured:
[1] = BA test (oral absorbability); assay type: in vivo; conditions: rat; for Parent compound BA(%): oral administration of parent compound; for plasma concentration of the prodrug itself: oral administration, non-fasting, all plasma samples
Protocol: Experimental Material and Method for Studying Oral Absorbability
(1) Animal to be used: A mouse or rat was used.
(2) Rearing conditions: Mouse and rat ingested a solid feed and sterilized tap water ad-libitum.
(3) Dose and setting of grouping: A predetermined dose was administered orally or intravenously. A group was set as follows. (a dose varied for every compound)
Oral administration 1 to 30 mg/kg (n=2 to 3)
Intravenous administration 0.5 to 10 mg/kg (n=2 to 3)
(4) Preparation of administration solution: For oral administration, a solution or suspension was administered. For intravenous administration, a compound which was solubilized was administered.
(5) Administration method: For oral administration, the administration solution was forcibly administered to the stomach by oral sonde. For intravenous administration, the administration solution was administered with a syringe equipped with an injection needle through a tail vein.
(6) Assessment item: Blood was collected with time, and a plasma drug concentration was measured using LC/MS/MS.
(7) Statistical analysis: Regarding plasma concentration transition, an area under a plasma concentration-time curve (AUC) was calculated using a non-linear minimum square method program WinNonlin (registered trademark), and bioavailability (BA) was calculated from AUC of an oral-administered group and an intervenous-administered group.

[2] = test system: influenza virus; test: microbe, parasite or virus in culture; assay type: cell-based; conditions: unidentified influenza virus, 72 h, read-out: CPE EC50, parent compounds (Reference examples); MDBK or MDCK cells, 3 days, WST-8
[3] = target: Cap-dependant Endonuclease (CEN) (RNP fraction, PB1-PB2-PA complex) (Influenza A virus (strain A/Wilson-Smith/1933 H1N1) (Influenza A virus (strain A/WS/1933 H1N1)), UniProt P15659); assay type: biochemical, influenza A/WSN/33 virus
[4] = test system: influenza virus (A/WS/33, A/Victoria/3/75 or B/Maryland/1/59); assay type: in vivo; conditions: oral, infected mouse, 14 days after virus infection
[5] = parent compounds (Reference examples), room temperature, 60 minutes

SMILES	EC50 [2]	IC50 [3, 5]	further results
CC(C)N1CN(C2c3ccccc3CSc3ccccc32)n2ccc(=O)c(O)c2C1=O (centres unmarked) [Reference example 301]	–	–	Parent compound BA(%) [1]: 2.3%
CC(=O)Oc1c2n(ccc1=O)N(C1c3ccccc3CSc3ccccc31)CN(C(C)C)C2=O (centres unmarked) [Example 204]	–	–	plasma concentration of the prodrug itself [1]: a determination limit or less
CC(=O)OCOc1c2n(ccc1=O)N(C1c3ccccc3CSc3ccccc31)CN(C(C)C)C2=O (centres unmarked) [Example 114]	–	–	plasma concentration of the prodrug itself [1]: a determination limit or less
C[C@@H](N1CN([C@@H]2c3ccccc3SCc3cccc(Cl)c32)n2ccc(=O)c(O)c2C1=O)C(F)(F)F [Reference example 429]	4 nM	–	Parent compound BA(%) [1]: 13.3%
C[C@@H](N1CN([C@@H]2c3ccccc3SCc3c(F)cccc32)n2ccc(=O)c(O)c2C1=O)C(F)(F)F [Reference example 445]	4 nM	13 nM	Parent compound BA(%) [1]: 12.1%
CC(=O)c1cn2c(c(O)c1=O)C(=O)N([C@H](C)C(F)(F)F)CN2[C@@H]1c2ccccc2SCc2c1ccc(F)c2F [compound 706]	7.19 nM	18.6 nM	–
C[C@@H](N1CN([C@@H]2c3cccc(Cl)c3SCc3cccc(F)c32)n2ccc(=O)c(O)c2C1=O)C(F)(F)F [Reference example 601]	8 nM	25 nM	–
C[C@@H](N1CN([C@@H]2c3ccccc3SCc3cccc(C4CC4)c32)n2ccc(=O)c(O)c2C1=O)C(F)(F)F [compound 691]	4.05 nM	3.67 nM	–
C[C@@H](N1CN([C@@H]2c3ccccc3SCc3cccc(Cl)c32)n2cc(B(O)O)c(=O)c(O)c2C1=O)C(F)(F)F [compound 707]	3.05 nM	40.2 nM	–
Cc1cccc2c1[C@@H](N1CN([C@H](C)C(F)(F)F)C(=O)c3c(O)c(=O)ccn31)c1ccccc1SC2 [Reference example 662]	22 nM	316 nM	–
C[C@@H](N1CN(C2c3ccccc3CCc3cccc(Cl)c32)n2ccc(=O)c(O)c2C1=O)C(F)(F)F (some centres unmarked) [compound 686]	7.86 nM	15.1 nM	–
Cc1cccc2c1CSc1c(C)cccc1[C@H]2N1CN([C@H](C)C(F)(F)F)C(=O)c2c(O)c(=O)ccn21 [Reference example 613]	18 nM	–	IC50 [3]: 173 nM
C[C@@H](N1CN([C@@H]2c3ccccc3CCc3c(F)cccc32)n2ccc(=O)c(O)c2C1=O)C(F)(F)F [Reference example 634]	17 nM	103 nM	–
Cc1cccc2c1CCc1c(C)cccc1C2N1CN([C@H](C)C(F)(F)F)C(=O)c2c(O)c(=O)ccn21 [Reference example 632]	38 nM	132 nM	–
C[C@@H](N1CN([C@@H]2c3ccc(F)cc3SCc3cccc(F)c32)n2ccc(=O)c(O)c2C1=O)C(F)(F)F [Reference example 598]	5 nM	16 nM	–
C[C@@H](N1CN([C@@H]2c3ccccc3SCc3c(Cl)cccc32)n2cc(CO)c(=O)c(O)c2C1=O)C(F)(F)F [compound 719]	8.36 nM	2.6 nM	–

SMILES	EC50 [2]	IC50 [3, 5]	further results
Cc1cccc2c1CCc1ccccc1C2N1CN([C@H](C)C(F)(F)F)C(=O)c2c(O)c(=O)ccn21 (some centres unmarked) [Reference example 631]	41 nM	75 nM	–
CC(O)c1cn2c(c(O)c1=O)C(=O)N([C@H](C)C(F)(F)F)CN2[C@@H]1c2ccccc2SCc2cccc(Cl)c21 (some centres unmarked) [compound 710]	9.81 nM	–	IC50 [3]: 20.6 nM
C[C@@H](N1CN(C2c3cccc(F)c3CCc3c(F)cccc32)n2ccc(=O)c(O)c2C1=O)C(F)(F)F [Reference example 638]	21 nM	130 nM	–
C[C@@H](N1CN([C@H]2c3cccc(F)c3CSc3c(Cl)cccc32)n2ccc(=O)c(O)c2C1=O)C(F)(F)F [Reference example 594]	4 nM	–	IC50 [3]: 11 nM; Parent compound BA(%) [1]: 5.0%
CC(=O)Oc1c2n(ccc1=O)N([C@H]1c3ccccc3CSc3ccccc31)CN([C@H](C)C(F)(F)F)C2=O [Example 20]	–	–	ED50 of single dose (dose for 50% lethality inhibition) [4]: 4.4 mg/kg/day
C[C@@H](N1CN([C@H]2c3ccccc3SCc3cccc(Br)c32)n2ccc(=O)c(O)c2C1=O)C(F)(F)F [Reference example 661]	14 nM	135 nM	–
C[C@@H](N1CN([C@H]2c3cc(F)ccc3CSc3c(Cl)cccc32)n2ccc(=O)c(O)c2C1=O)C(F)(F)F [Reference example 658]	19 nM	53 nM	–
O=C1c2c(O)c(=O)ccn2N(C2c3ccccc3CCc3ccccc32)CN1C1COC1 [Reference example 629]	64 nM	89 nM	–
C[C@@H](N1CN([C@@H](c2ccccc2)c2ccccc2Cl)n2ccc(=O)c(O)c2C1=O)C(F)(F)F [Reference example 651]	13 nM	56 nM	–
C[C@@H](N1CN([C@H]2c3ccccc3CSc3ccccc32)n2cc(CO)c(=O)c(O)c2C1=O)C(F)(F)F [compound 712]	6.45 nM	16.4 nM	–
N#CCN1CN(C(c2ccccc2)c2ccccc2)n2ccc(=O)c(O)c2C1=O [Reference example 574]	442 nM	165 nM	–
C[C@@H](N1CN([C@H]2c3cc(F)ccc3CSc3c(F)cccc32)n2ccc(=O)c(O)c2C1=O)C(F)(F)F [Reference example 656]	19 nM	70 nM	–
C[C@@H](N1CN(C(c2ccc(F)cc2)c2ccc(F)cc2)n2ccc(=O)c(O)c2C1=O)C(F)(F)F [Reference example 649]	51 nM	182 nM	–
C[C@@H](N1CN([C@@H]2c3ccccc3SCc3c2ccc(F)c3F)n2cc(B(O)O)c(=O)c(O)c2C1=O)C(F)(F)F [compound 709]	7.09 nM	34.3 nM	–
C[C@@H](N1CN([C@H](c2ccccc2)c2ccccc2Cl)n2ccc(=O)c(O)c2C1=O)C(F)(F)F [Reference example 652]	79 nM	330 nM	–
C[C@@H](N1CN([C@@H]2c3ccccc3SCc3cccc(N(C)C)c32)n2ccc(=O)c(O)c2C1=O)C(F)(F)F [compound 752]	3.12 nM	14.2 nM	–
